The target of experiment [1] is T1, recombinant Eppin binding to recombinant semenogelin (Homo sapiens, UniProt O95925).
T1 construct: made in house; host or cells: E. coli strain M15 [pREP-4]
Briefly: Eppin-semenogelin in vitro binding assay (96-well ELISA format, absorption at 450 nm). The following applies: Eppin preincubated with compound dilutions starting at 40 μg/ml; OD 450 nm (FIG. 4). How it is done:
In one embodiment, His-tagged recombinant semenogelin is bound to the individual wells of the plate, FLAG-tagged recombinant Eppin is bound to the semenogelin. The recombinant Eppin and recombinant semenogelin will form a complex. Compounds are then individually added to the wells of the plate and allowed to interfere with the Eppin-semenogelin complex formation. An anti-FLAG antibody (such as the M2 antibody sold by Sigma-Aldrich) is then added to the wells of the plate. The inhibition of the binding of Eppin to semenogelin is determined by looking for changes in Eppin-semenogelin binding when the anti-FLAG antibody (such as those used in commercially-available ELISA assays) is added. One can detect the binding of the anti-FLAG antibody to the FLAG tagged Eppin, for example, by looking at the absorption at 450 nm. In another embodiment, compounds are incubated with FLAG-tagged recombinant Eppin before being added to Sg. The anti-FLAG antibody is added after the Eppin-compound mixtures are added to the wells of the plate.
Recombinant Eppin and semenogelin are as described in Wang et al., Biology of Reproduction, 72:1064-1070 (2005). The recombinant Eppin used in the assays described herein has been tagged with a FLAG tag. The recombinant semenogelin is a His-tagged recombinant protein of the fragment of semenogelin starting with amino acid 164 and continuing to amino acid 283. […]

The test system of a further experiment is human spermatozoa. The experiment in a line: Human sperm motility assay with Compound A4. It counts as cell-based. The source says:
Human spermatozoa were obtained from the UNC-Hospital clinic, washed and used for testing in a motility assay. Compound A4 reduced the total number of motile sperm in an ejaculate to <10% within one hour. The data are shown below in FIGS. 5 and 6, and in Tables 2 and 3.

From patent publication US20100286280A1, “INHIBITORS OF EPPIN/SEMENOGELIN BINDING AS MALE CONTRACEPTIVES” (The University of North Carolina at Chapel Hill, priority 2007, published 2010) come the findings set out here.

Entries after “also recorded” stand apart in the source; their conditions may differ.

T1 sequence (O95925 22-133): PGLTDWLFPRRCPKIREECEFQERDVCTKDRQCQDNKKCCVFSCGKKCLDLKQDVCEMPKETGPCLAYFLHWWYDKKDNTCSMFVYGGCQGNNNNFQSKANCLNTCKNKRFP

Consider `Cl.NC(=O)CNCC(N)=O` [Compound A4], for which the “inhibition of Eppin-semenogelin binding” value in experiment [1] is recorded as “effective at inhibiting this binding in a dose dependent manner; also recorded: inhibited Eppin-semenogelin binding in a dose dependent manner”. For the same molecule, in the experiment with human spermatozoa (Table 2, swim up + A4 + 1 hr), the Velocity amounted to 15 μm/sec and the total distance came to 222 μm. Also, in the experiment on human spermatozoa (Table 3, swim up + 1 hour), the “% Motility” value is listed as 7%, the Average velocity was determined as 14.9 μm/sec, the Distance came to 222 μm and the Straight distance came out at 48.7 μm. In the experiment on human spermatozoa (human spermatozoa), the “inhibition of sperm motility (in words)” value is “inhibits their motility, significantly reducing their forward velocity and distance traveled; also recorded: effective at inhibiting sperm motility”. Moreover, the “total number of motile sperm in an ejaculate” value in the experiment on human spermatozoa (within one hour) is given as under 10%.
